Assay: Inhibition of HIV1 gp120 binding to CD4 in human HeLa cells by cell fusion assay
Assay type: cell-based, Human immunodeficiency virus 1

Compound: C=CCn1cc(C(=O)C(=O)N2CCN(C(=O)c3ccccc3)CC2)c2ccccc21
- EC50: 6760 nM
- pEC50: 5.17

Compound: O=C(C(=O)N1CCN(C(=O)c2ccccc2)CC1)c1c[nH]c2cccc(F)c12
- EC50: 2.59 nM
- pEC50: 8.59

Compound: O=C(C(=O)N1CCN(C(=O)c2ccccc2)CC1)c1c[nH]c2ccccc12
- EC50: 153 nM
- pEC50: 6.82

Compound: CCOc1cccc2c(C(=O)C(=O)N3CCN(C(=O)c4ccccc4)CC3)c[nH]c12
- EC50: 0.5 nM
- pEC50: 9.3

Compound: N#Cc1ccc2[nH]cc(C(=O)C(=O)N3CCN(C(=O)c4ccccc4)CC3)c2c1
- EC50: 121000 nM
- pEC50: 3.92

Compound: COc1ccc(Cl)c2[nH]cc(C(=O)C(=O)N3CCN(C(=O)c4ccccc4)CC3)c12
- EC50: 0.07 nM
- pEC50: 10.15

Compound: O=C(C(=O)N1CCN(C(=O)c2ccccc2)CC1)c1c[nH]c2cccc(Br)c12
- EC50: 4.5 nM
- pEC50: 8.35

Compound: O=C(C(=O)N1CCN(C(=O)c2ccccc2)CC1)c1c[nH]c2cccc([N+](=O)[O-])c12
- EC50: 150 nM
- pEC50: 6.82

Compound: CC(=O)Oc1ccc2[nH]cc(C(=O)C(=O)N3CCN(C(=O)c4ccccc4)CC3)c2c1
- EC50: 952 nM
- pEC50: 6.02

Compound: O=C(C(=O)N1CCN(C(=O)c2ccccc2)CC1)c1c[nH]c2cc(Cl)ccc12
- EC50: 208 nM
- pEC50: 6.68

Compound: COc1ccc2c(C(=O)C(=O)N3CCN(C(=O)c4ccccc4)CC3)c[nH]c2c1
- EC50: 329 nM
- pEC50: 6.48

Compound: CC(=O)Oc1cccc2[nH]cc(C(=O)C(=O)N3CCN(C(=O)c4ccccc4)CC3)c12
- EC50: 24900 nM
- pEC50: 4.6

Compound: O=C(C(=O)N1CCN(C(=O)c2ccccc2)CC1)c1c[nH]c2c(F)c(F)c(F)c(F)c12
- EC50: 1.7 nM
- pEC50: 8.77

Compound: CCn1cc(C(=O)C(=O)N2CCN(C(=O)c3ccccc3)CC2)c2ccccc21
- EC50: 1450 nM
- pEC50: 5.84

Compound: O=C(C(=O)N1CCN(C(=O)c2ccccc2)CC1)c1cn(Cc2ccccc2)c2ccccc12
- EC50: 13800 nM
- pEC50: 4.86

Compound: CCCCn1cc(C(=O)C(=O)N2CCN(C(=O)c3ccccc3)CC2)c2ccccc21
- EC50: 2650 nM
- pEC50: 5.58

Compound: COc1ccc2[nH]cc(C(=O)C(=O)N3CCN(C(=O)c4ccccc4)CC3)c2c1
- EC50: 21100 nM
- pEC50: 4.68

Compound: O=C(C(=O)N1CCN(C(=O)c2ccccc2)CC1)c1c[nH]c2ccc([N+](=O)[O-])cc12
- EC50: 3800 nM
- pEC50: 5.42

Compound: CCOc1cccc2[nH]cc(C(=O)C(=O)N3CCN(C(=O)c4ccccc4)CC3)c12
- EC50: 0.45 nM
- pEC50: 9.35

Compound: O=C(C(=O)N1CCN(C(=O)c2ccccc2)CC1)c1c[nH]c2c(Br)ccc(OC(F)(F)F)c12
- EC50: 42.8 nM
- pEC50: 7.37

Compound: O=C(C(=O)N1CCN(C(=O)c2ccccc2)CC1)c1c[nH]c2ccc(F)cc12
- EC50: 838 nM
- pEC50: 6.08

Compound: O=C(C(=O)N1CCN(C(=O)c2ccccc2)CC1)c1c[nH]c2ccc(Cl)cc12
- EC50: 395 nM
- pEC50: 6.4

Compound: O=C(C(=O)N1CCN(C(=O)c2ccccc2)CC1)c1c[nH]c2ccc(Br)cc12
- EC50: 1090 nM
- pEC50: 5.96

Compound: O=C(C(=O)N1CCN(C(=O)c2ccccc2)CC1)c1c[nH]c2c(Br)ccc(F)c12
- EC50: 0.13 nM
- pEC50: 9.89

Compound: Cc1ccc2[nH]cc(C(=O)C(=O)N3CCN(C(=O)c4ccccc4)CC3)c2c1
- EC50: 1550 nM
- pEC50: 5.81

Compound: O=C(C(=O)N1CCN(C(=O)c2ccccc2)CC1)c1c[nH]c2cc(F)c(Br)c(F)c12
- EC50: 23.1 nM
- pEC50: 7.64

Compound: O=C(C(=O)N1CCN(C(=O)c2ccccc2)CC1)c1c[nH]c2c(F)ccc(F)c12
- EC50: 0.35 nM
- pEC50: 9.46

Compound: CCc1cccc2c(C(=O)C(=O)N3CCN(C(=O)c4ccccc4)CC3)c[nH]c12
- EC50: 24.2 nM
- pEC50: 7.62

Compound: N#Cc1cccc2c(C(=O)C(=O)N3CCN(C(=O)c4ccccc4)CC3)c[nH]c12
- EC50: 4.9 nM
- pEC50: 8.31

Compound: CCCCOc1cccc2c(C(=O)C(=O)N3CCN(C(=O)c4ccccc4)CC3)c[nH]c12
- EC50: 0.14 nM
- pEC50: 9.85

Compound: N#Cc1ccc(F)c2c(C(=O)C(=O)N3CCN(C(=O)c4ccccc4)CC3)c[nH]c12
- EC50: 1.9 nM
- pEC50: 8.72

Compound: O=C(C(=O)N1CCN(C(=O)c2ccccc2)CC1)c1c[nH]c2cc(F)cc(F)c12
- EC50: 0.42 nM
- pEC50: 9.38

Compound: O=C(C(=O)N1CCN(C(=O)c2ccccc2)CC1)c1c[nH]c2c(Br)cccc12
- EC50: 17.4 nM
- pEC50: 7.76

Compound: Cc1cccc2c(C(=O)C(=O)N3CCN(C(=O)c4ccccc4)CC3)c[nH]c12
- EC50: 89.5 nM
- pEC50: 7.05

Compound: O=C(C(=O)N1CCN(C(=O)c2ccccc2)CC1)c1c[nH]c2cccc(O)c12
- EC50: 20100 nM
- pEC50: 4.7

Compound: COc1ccc(Br)c2[nH]cc(C(=O)C(=O)N3CCN(C(=O)c4ccccc4)CC3)c12
- EC50: 0.13 nM
- pEC50: 9.89

Compound: Cc1ccc(F)c2c(C(=O)C(=O)N3CCN(C(=O)c4ccccc4)CC3)c[nH]c12
- EC50: 0.56 nM
- pEC50: 9.25

Compound: COc1ccc(OC)c2c(C(=O)C(=O)N3CCN(C(=O)c4ccccc4)CC3)c[nH]c12
- EC50: 0.23 nM
- pEC50: 9.64

Compound: COc1ccc(C#N)c2[nH]cc(C(=O)C(=O)N3CCN(C(=O)c4ccccc4)CC3)c12
- EC50: 0.06 nM
- pEC50: 10.22

Compound: O=C(C(=O)N1CCN(C(=O)c2ccccc2)CC1)c1c[nH]c2c(F)cccc12
- EC50: 7.3 nM
- pEC50: 8.14

Compound: Cn1cc(C(=O)C(=O)N2CCN(C(=O)c3ccccc3)CC2)c2ccccc21
- EC50: 265 nM
- pEC50: 6.58

Compound: COc1cc2[nH]cc(C(=O)C(=O)N3CCN(C(=O)c4ccccc4)CC3)c2cc1OC
- EC50: 46500 nM
- pEC50: 4.33

Compound: O=C(C(=O)N1CCN(C(=O)c2ccccc2)CC1)c1c[nH]c2c(Cl)cccc12
- EC50: 4.4 nM
- pEC50: 8.36

Compound: COc1ccc(F)c2c(C(=O)C(=O)N3CCN(C(=O)c4ccccc4)CC3)c[nH]c12
- EC50: 0.06 nM
- pEC50: 10.22

Compound: O=C(C(=O)N1CCN(C(=O)c2ccccc2)CC1)c1c[nH]c2c(Br)cc(F)cc12
- EC50: 73.1 nM
- pEC50: 7.14

Compound: COc1cccc2c(C(=O)C(=O)N3CCN(C(=O)c4ccccc4)CC3)c[nH]c12
- EC50: 6.6 nM
- pEC50: 8.18

Compound: O=C(C(=O)N1CCN(C(=O)c2ccccc2)CC1)c1c[nH]c2cc(Cl)c(Cl)cc12
- EC50: 500 nM
- pEC50: 6.3

Compound: O=C(C(=O)N1CCN(C(=O)c2ccccc2)CC1)c1c[nH]c2c(OCC(F)(F)F)ccc(F)c12
- EC50: 0.71 nM
- pEC50: 9.15

Compound: O=C(C(=O)N1CCN(C(=O)c2ccccc2)CC1)c1c[nH]c2cccc(Cl)c12
- EC50: 4.3 nM
- pEC50: 8.37

Compound: COc1cccc2[nH]cc(C(=O)C(=O)N3CCN(C(=O)c4ccccc4)CC3)c12
- EC50: 0.52 nM
- pEC50: 9.28

Compound: O=C(C(=O)N1CCN(C(=O)c2ccccc2)CC1)c1c[nH]c2cc(F)ccc12
- EC50: 21.1 nM
- pEC50: 7.68

Compound: O=C(C(=O)N1CCN(C(=O)c2ccccc2)CC1)c1c[nH]c2c(F)ccc(Br)c12
- EC50: 8.2 nM
- pEC50: 8.09

Reference: ChEMBL document CHEMBL1157860, “CoMFA and CoMSIA studies on HIV-1 attachment inhibitors” (Eur J Med Chem, 2010)
